In patent US12605362B2, “Eletriptan hydrobromide for treatment of spinal cord injury and improvement of locomotor function” (TECHNOPHAGE, INVESTIGAÇÃO E DESENVOLVIMENTO EM …, priority 2020, dated 2026):
Where a name gives a salt, the structure may show the parent alone.

Key:
[1] = system: mice with T9 contusion type of injury; assay: bladder function score during manual bladder expression after T9 contusion SCI; type: in vivo; conditions: vs Vehicle
Method: A moderate-severe contusion-type of injury was performed on adult C57BL/6 female mice (10-12 weeks) with an Infinite Horizon Impactor (PSI)^30. All surgeries were performed under aseptic conditions. Briefly, under deep anesthesia with Ketamine and Xylazine (120 mg/kg and 16 mg/kg respectively, i.p.) mice received a dorsal laminectomy at the level of 9th thoracic vertebra (T9). After securing the lateral processes of the 8th thoracic vertebra (T8) and 10th thoracic vertebra (T10) with a stainless-steel impactor tip, a controlled force-defined impact at 75 kdyne was delivered to the exposed spinal cord^28,30. Then, muscle and skin were closed with 4.0 polyglycolic acid (PGA) absorbable sutures (Safil, G1048213). In this study, mice were excluded when the actual displacement value was outside the interval 500-700 μm or if the actual force after impact was >2SD 75 Kdyne. Immediately after injury, mice were injected subcutaneously with 0.5 ml of sterile saline and then daily for 5 days. […] Weight was monitored daily until 15 days-post-injury (dpi) and then weekly for the duration of the study and a high caloric pellet (Supreme Mini-Treats™ S05478 and S05472) was provided as a dietary supplement since a 10% weight loss was typically observed in this SCI model upon injury. […]
Additionally, we also evaluated the bladder dysfunction status, which is a common effect seen after a SCI^3,37. […]

5-HT1B = 5-HT1B (Homo sapiens, UniProt P28222); conditions: serotonin receptor agonist; cited from earlier work
Chain of 5-HT1B (P28222 whole entry, species assumed): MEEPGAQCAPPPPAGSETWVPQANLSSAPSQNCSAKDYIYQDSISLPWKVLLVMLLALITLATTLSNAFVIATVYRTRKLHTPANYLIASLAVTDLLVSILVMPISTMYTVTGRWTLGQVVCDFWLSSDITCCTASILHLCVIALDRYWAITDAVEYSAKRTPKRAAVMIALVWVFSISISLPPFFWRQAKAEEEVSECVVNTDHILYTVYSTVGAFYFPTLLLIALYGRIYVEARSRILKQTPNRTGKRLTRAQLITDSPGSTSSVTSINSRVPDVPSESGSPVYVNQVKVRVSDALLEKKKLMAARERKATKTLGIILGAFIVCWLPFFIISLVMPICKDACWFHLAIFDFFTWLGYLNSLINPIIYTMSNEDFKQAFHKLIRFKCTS

With CN1CCC[C@@H]1Cc1c[nH]c2ccc(CCS(=O)(=O)c3ccccc3)cc12 [Eletriptan Hbr, Eletriptan Hydrobromide] as the compound, how does the “volumes of retained urine (bladder score 0 to 3)” value ([1]; 1 dpi) read?
Its value is “statistically significant smaller volumes of retained urine”.

What about the “volumes of retained urine (bladder score 0 to 3)” value ([1]; after 1 dpi until the end of the study) of the same compound?
The value was “no differences between experimental groups”.

What about the affinity (5-HT1B) of the same compound?
The affinity was “high affinity”.
